Data published in US20250122219A1 (priority 2023, published 2025).

Assays:
HIV-1 (IIIB) = experiment: Antiviral assay in MT-4 cells; assay type: cell-based; details: Human immunodeficiency virus 1, MT4, 120 h; HIV-1 IIIB in MT-4 cells, 5 days incubation, Cell Titer Glo; read-out: MT4 EC50
Summary of the method: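 HIV-1 IIIB-infected MT-4 cells (fresh 1:250 virus stock dilution; mock-infected controls) incubated 5 days at 37 °C with serially diluted compounds in RPMI/10% FBS; 5 μM AZT as positive control. Cell viability read by CellTiter-Glo luminescence as measure of protection from viral replication.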

[1] = Cytotoxicity assay in MT-4 cells; assay type: cell-based; details: human; uninfected MT-4 cells, 5 days incubation, Cell Titer Glo; read-out: MT4 CC50
Summary of the method: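 Uninfected MT-4 cells exposed to serially diluted compounds in RPMI with 10% FBS for 5 days at 37 °C. Viability by Cell Titer Glo chemiluminescence. Puromycin […] as baseline cytotoxicity control.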

Row | EC50 (HIV-1 (IIIB)) [µM] | Structure (SMILES) | CC50 at 5 days [1] [µM]
1 | 0.0117 | CCCCCCCCCCCCCCCC(=O)OCOc1c2n(cc(C(=O)NCc3ccc(F)cc3F)c1=O)[C@@H]1CN(C2=O)[C@@H](C)CC[C@]12CC(OC)=NO2 [Example 104, (((3′S,5S,7′R)-10′-((2,4-difluorobenzyl)carbamoyl)-3-methoxy-3′-methyl-1′,11′-dioxo-1′,4′,5′,11′-tetrahydro-3′H,4H,7′H-spiro[isoxazole-5,6′-[2,7]methanopyrido[1,2-a][1,4]diazonin]-12′-yl)oxy)methyl palmitate] | ≥ 50
2 | 0.0225 | CCCCCCCCCCCCCCCC(=O)OCOc1c2n(cc(C(=O)NCc3ccc(F)cc3F)c1=O)[C@@H]1CN(C2=O)[C@@H](C)CC[C@]12CC(C)=NO2 [Example 105, (((3′S,5S,7′R)-10′-((2,4-difluorobenzyl)carbamoyl)-3,3′-dimethyl-1′,11′-dioxo-1′,4′,5′,11′-tetrahydro-3′H,4H,7′H-spiro[isoxazole-5,6′-[2,7]methanopyrido[1,2-a][1,4]diazonin]-12′-yl)oxy)methyl palmitate] | ≥ 50
3 | 0.0272 | CCCCCCCCCCCCCCCCCC(=O)OCOc1c2n(cc(C(=O)NCc3ccc(F)cc3F)c1=O)[C@@H]1CN(C2=O)[C@@H](C)CC[C@]12CC(OC)=NO2 [Example 106, (((3′S,5S,7′R)-10′-((2,4-difluorobenzyl)carbamoyl)-3-methoxy-3′-methyl-1′,11′-dioxo-1′,4′,5′,11′-tetrahydro-3′H,4H,7′H-spiro[isoxazole-5,6′-[2,7]methanopyrido[1,2-a][1,4]diazonin]-12′-yl)oxy)methyl stearate] | ≥ 50
4 | 0.0323 | CCCCCCCCCCCCCCCCCC(=O)OCOc1c2n(cc(C(=O)NCc3ccc(F)cc3F)c1=O)[C@@H]1CN(C2=O)[C@@H](C)CC[C@]12CC(C)=NO2 [Example 107, (((3′S,5S,7′R)-10′-((2,4-difluorobenzyl)carbamoyl)-3,3′-dimethyl-1′,11′-dioxo-1′,4′,5′,11′-tetrahydro-3′H,4H,7′H-spiro[isoxazole-5,6′-[2,7]methanopyrido[1,2-a][1,4]diazonin]-12′-yl)oxy)methyl stearate] | ≥ 50
5 | 0.0015 | COC1=NO[C@@]2(CC[C@H](C)N3C[C@H]2n2cc(C(=O)NCc4ccc(F)cc4F)c(=O)c(OCOC(=O)CC(C)C)c2C3=O)C1 [Example 110, (((3′S,5S,7′R)-10′-((2,4-difluorobenzyl)carbamoyl)-3-methoxy-3′-methyl-1′,11′-dioxo-1′,4′,5′,11′-tetrahydro-3′H,4H,7′H-spiro[isoxazole-5,6′-[2,7]methanopyrido[1,2-a][1,4]diazonin]-12′-yl)oxy)methyl 3-methylbutanoate] | 16.4
6 | 0.00195 | CC1=NO[C@@]2(CC[C@H](C)N3C[C@H]2n2cc(C(=O)NCc4ccc(F)cc4F)c(=O)c(OCOC(=O)CC(C)C)c2C3=O)C1 [Example 111, (((3′S,5S,7′R)-10′-((2,4-difluorobenzyl)carbamoyl)-3,3′-dimethyl-1′,11′-dioxo-1′,4′,5′,11′-tetrahydro-3′H,4H,7′H-spiro[isoxazole-5,6′-[2,7]methanopyrido[1,2-a][1,4]diazonin]-12′-yl)oxy)methyl 3-methylbutanoate] | 13.8
7 | 0.00178 | COC1=NO[C@@]2(CC[C@H](C)N3C[C@H]2n2cc(C(=O)NCc4ccc(F)cc4F)c(=O)c(OCOC(=O)CCCC(C)C)c2C3=O)C1 [Example 113, (((3′S,5S,7′R)-10′-((2,4-difluorobenzyl)carbamoyl)-3-methoxy-3′-methyl-1′,11′-dioxo-1′,4′,5′,11′-tetrahydro-3′H,4H,7′H-spiro[isoxazole-5,6′-[2,7]methanopyrido[1,2-a][1,4]diazonin]-12′-yl)oxy)methyl 5-methylhexanoate] | 20.3
8 | 0.00389 | COC1=NO[C@@]2(CC[C@H](C)N3C[C@H]2n2cc(C(=O)NCc4ccc(F)cc4F)c(=O)c(OCOC(=O)CCCCC(C)C)c2C3=O)C1 [Example 114, (((3′S,5S,7′R)-10′-((2,4-difluorobenzyl)carbamoyl)-3-methoxy-3′-methyl-1′,11′-dioxo-1′,4′,5′,11′-tetrahydro-3′H,4H,7′H-spiro[isoxazole-5,6′-[2,7]methanopyrido[1,2-a][1,4]diazonin]-12′-yl)oxy)methyl 6-methylheptanoate] | 19.7
9 | 0.00363 | CC1=NO[C@@]2(CC[C@H](C)N3C[C@H]2n2cc(C(=O)NCc4ccc(F)cc4F)c(=O)c(OCOC(=O)CCCCC(C)C)c2C3=O)C1 [Example 115, (((3′S,5S,7′R)-10′-((2,4-difluorobenzyl)carbamoyl)-3,3′-dimethyl-1′,11′-dioxo-1′,4′,5′,11′-tetrahydro-3′H,4H,7′H-spiro[isoxazole-5,6′-[2,7]methanopyrido[1,2-a][1,4]diazonin]-12′-yl)oxy)methyl 6-methylheptanoate] | 16.2
10 | 0.00417 | COC1=NO[C@@]2(CC[C@H](C)N3C[C@H]2n2cc(C(=O)NCc4ccc(F)cc4F)c(=O)c(OCOC(=O)CCCCCC(C)C)c2C3=O)C1 [Example 116, (((3′S,5S,7′R)-10′-((2,4-difluorobenzyl)carbamoyl)-3-methoxy-3′-methyl-1′,11′-dioxo-1′,4′,5′,11′-tetrahydro-3′H,4H,7′H-spiro[isoxazole-5,6′-[2,7]methanopyrido[1,2-a][1,4]diazonin]-12′-yl)oxy)methyl 7-methyloctanoate] | 27.2
11 | 0.00284 | CC1=NO[C@@]2(CC[C@H](C)N3C[C@H]2n2cc(C(=O)NCc4ccc(F)cc4F)c(=O)c(OCOC(=O)CCCCCC(C)C)c2C3=O)C1 [Example 117, (((3′S,5S,7′R)-10′-((2,4-difluorobenzyl)carbamoyl)-3,3′-dimethyl-1′,11′-dioxo-1′,4′,5′,11′-tetrahydro-3′H,4H,7′H-spiro[isoxazole-5,6′-[2,7]methanopyrido[1,2-a][1,4]diazonin]-12′-yl)oxy)methyl 7-methyloctanoate] | ≥ 50
12 | 0.00219 | CC1=NO[C@@]2(CC[C@H](C)N3C[C@H]2n2cc(C(=O)NCc4ccc(F)cc4F)c(=O)c(OCOC(=O)CCCC(C)C)c2C3=O)C1 [Example 118] | 18.2
13 | 0.00287 | COC1=NO[C@@]2(CC[C@H](C)N3C[C@H]2n2cc(C(=O)NCc4ccc(F)cc4F)c(=O)c(OCOC(=O)CCCCCCC(C)C)c2C3=O)C1 [Example 119, (((3′S,5S,7′R)-10′-((2,4-difluorobenzyl)carbamoyl)-3-methoxy-3′-methyl-1′,11′-dioxo-1′,4′,5′,11′-tetrahydro-3′H,4H,7′H-spiro[isoxazole-5,6′-[2,7]methanopyrido[1,2-a][1,4]diazonin]-12′-yl)oxy)methyl 8-methylnonanoate] | 43.8
14 | 0.00204 | CC1=NO[C@@]2(CC[C@H](C)N3C[C@H]2n2cc(C(=O)NCc4ccc(F)cc4F)c(=O)c(OCOC(=O)CCCCCCC(C)C)c2C3=O)C1 [Example 120, (((3′S,5S,7′R)-10′-((2,4-difluorobenzyl)carbamoyl)-3,3′-dimethyl-1′,11′-dioxo-1′,4′,5′,11′-tetrahydro-3′H,4H,7′H-spiro[isoxazole-5,6′-[2,7]methanopyrido[1,2-a][1,4]diazonin]-12′-yl)oxy)methyl 8-methylnonanoate] | 42.3
